Measured values as given in article PMC9147192, “Small Molecule Arranged Thermal Proximity Coaggregation (smarTPCA)—A Novel Approach to Characterize Protein–Protein Interactions in Living Cells by Similar Isothermal Dose–Responses” (International Journal of Molecular Sciences, 2022).

Tests used:
[1] = molecular target: T1, LRRC59 (Homo sapiens, UniProt Q96AG4); assay: TPP-CCR in living HL-60 cells; format: cell-based
T1 construct: endogenous in cells; host or cells: HL-60 (ATCC CCL-240)
T1 sequence (Q96AG4 1-307): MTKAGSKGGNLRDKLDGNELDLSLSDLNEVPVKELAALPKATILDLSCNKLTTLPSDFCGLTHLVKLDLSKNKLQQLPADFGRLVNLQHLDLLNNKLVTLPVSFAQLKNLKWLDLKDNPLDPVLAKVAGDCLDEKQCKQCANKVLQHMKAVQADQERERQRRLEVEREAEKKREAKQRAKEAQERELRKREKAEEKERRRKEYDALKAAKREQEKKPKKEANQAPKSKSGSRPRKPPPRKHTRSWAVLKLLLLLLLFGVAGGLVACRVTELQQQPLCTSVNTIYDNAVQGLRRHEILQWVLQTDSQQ

[2] = molecular target: T2, PDCD4 (Homo sapiens, UniProt Q53EL6); assay: TPP-CCR in living HL-60 cells; format: cell-based
T2 construct: endogenous in cells; host or cells: HL-60 (ATCC CCL-240)
T2 sequence (Q53EL6 1-469): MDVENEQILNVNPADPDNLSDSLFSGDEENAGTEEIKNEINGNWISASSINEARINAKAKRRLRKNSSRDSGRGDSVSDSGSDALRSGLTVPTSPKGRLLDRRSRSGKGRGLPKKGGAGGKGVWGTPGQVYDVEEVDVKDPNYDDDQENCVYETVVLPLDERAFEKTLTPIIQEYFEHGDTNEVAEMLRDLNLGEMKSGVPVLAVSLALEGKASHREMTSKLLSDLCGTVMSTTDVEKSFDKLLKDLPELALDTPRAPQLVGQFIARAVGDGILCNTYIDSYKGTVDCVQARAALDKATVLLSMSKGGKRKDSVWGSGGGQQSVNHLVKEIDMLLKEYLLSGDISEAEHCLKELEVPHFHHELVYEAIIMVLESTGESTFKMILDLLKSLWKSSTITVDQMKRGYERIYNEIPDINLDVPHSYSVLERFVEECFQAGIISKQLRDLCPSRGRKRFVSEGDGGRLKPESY

[3] = living HL-60 cells, […] °C, TMT-MS

**Q.** With `Cc1cnc(Nc2ccc(F)cc2Cl)nc1-c1c[nH]c(C(=O)N[C@H](CO)c2cccc(Cl)c2)c1` [ERK 11e] as the molecule, how does the Hill slope ([1]; TPP-CCR, living cells, LRRC59) read?
**A.** 0.59

**Q.** What about the “Hill slope (LRRC59)” value [1, 3] of the same molecule?
**A.** 0.59

**Q.** What about the EC50 ([1]; living HL-60 cells, […] °C, TMT-MS, read-out: pEC50 (LRRC59) (converted)) of the same molecule?
**A.** 1.48 µM

**Q.** And the Hill slope ([2]; TPP-CCR, living cells, PDCD4)?
**A.** 0.69

**Q.** What about the “Hill slope (PDCD4)” value [2, 3] of the same molecule?
**A.** 0.69

**Q.** What about the EC50 ([2]; living HL-60 cells, […] °C, TMT-MS, read-out: pEC50 (PDCD4) (converted)) of the same molecule?
**A.** 1.05 µM
